# Values quoted from earlier work, collected in patent US7390502B2, “SN-38 lipid complexes and their methods of use” (NeoPharm, Inc., priority 2000, dated 2008).
# Columns and labels:
# [1] = tested on: topoisomerase I purified from human and rodent tumor cell lines; details: versus irinotecan; enzyme purified from human and rodent tumor cell lines
# [2] = versus irinotecan
# [3] = aqueous solutions / water
# [4] = tends to precipitate into aqueous phase
smiles,measurement,setting,value
"CCc1c2c(nc3ccc(O)cc13)-c1cc3c(c(=O)n1C2)COC(=O)[C@]3(O)CC [SN-38, 7-ethyl-10-hydroxycamptothecin]",potency relative to irinotecan as an inhibitor of topoisomerase I,[1],approximately 1000 times
same,potency relative to irinotecan in in vitro cytotoxicity assays,[2],"up to 2,000 fold"
same,solubility in aqueous solutions,[3],exceedingly insoluble
same,affinity for lipid membranes,[4],low affinity
